Source: PMC9878661, “Syntheses, Structural Characterization, and Cytotoxicity Assessment of Novel Mn(II) and Zn(II) Complexes of Aroyl-Hydrazone Schiff Base Ligand” (ACS Omega, 2023)

Molecular target: T1, bovine serum albumin (BSA) (Bos taurus, UniProt P02769)
T1 construct: gene ALB
Experiment: UV-vis absorption titration of BSA at […] nm (double reciprocal plot)
Type: binding
Conditions: read-out: UV-vis absorption titration of BSA at 280 nm (double reciprocal plot) (converted)

T1 sequence (P02769 25-607): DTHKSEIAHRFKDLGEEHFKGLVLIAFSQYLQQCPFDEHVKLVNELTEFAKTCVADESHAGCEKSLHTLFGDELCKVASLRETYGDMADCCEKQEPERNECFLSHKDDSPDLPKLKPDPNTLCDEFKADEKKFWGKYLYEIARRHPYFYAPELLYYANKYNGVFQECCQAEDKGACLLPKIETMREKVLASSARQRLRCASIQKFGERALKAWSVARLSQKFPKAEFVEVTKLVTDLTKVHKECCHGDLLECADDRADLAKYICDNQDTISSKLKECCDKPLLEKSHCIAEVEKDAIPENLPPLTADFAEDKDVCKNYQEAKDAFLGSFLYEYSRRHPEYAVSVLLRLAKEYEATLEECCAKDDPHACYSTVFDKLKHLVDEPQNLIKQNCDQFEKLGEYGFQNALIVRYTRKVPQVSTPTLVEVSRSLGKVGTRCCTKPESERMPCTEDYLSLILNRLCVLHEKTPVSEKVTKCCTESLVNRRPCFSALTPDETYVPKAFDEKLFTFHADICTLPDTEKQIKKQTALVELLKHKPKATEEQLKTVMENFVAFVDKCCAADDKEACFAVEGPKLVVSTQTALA

Kd: 261 µM
SMILES: O=C(NN=Cc1c[nH]c2ccccc12)c1ccncc1 [L1, N′-[(E)-3-Indol-3-ylmethylene] isonicotinohydrazide]
